Measurements: PMC8224985 (European journal of medicinal chemistry, 2020)

How the values were obtained:
SphK2 [1] = settings: read-out: SphK2 Ki; cited from earlier work
human SphK2 = target: T1, human SphK2 (Homo sapiens, UniProt Q9NRA0); assay: Recombinant hSphK2 activity, single-concentration screen; settings: for inhibition at 0.3 µM: read-out: inhibition of hSphK2 activity, compound 0.3 μM
T1 sequence (Q9NRA0 1-654): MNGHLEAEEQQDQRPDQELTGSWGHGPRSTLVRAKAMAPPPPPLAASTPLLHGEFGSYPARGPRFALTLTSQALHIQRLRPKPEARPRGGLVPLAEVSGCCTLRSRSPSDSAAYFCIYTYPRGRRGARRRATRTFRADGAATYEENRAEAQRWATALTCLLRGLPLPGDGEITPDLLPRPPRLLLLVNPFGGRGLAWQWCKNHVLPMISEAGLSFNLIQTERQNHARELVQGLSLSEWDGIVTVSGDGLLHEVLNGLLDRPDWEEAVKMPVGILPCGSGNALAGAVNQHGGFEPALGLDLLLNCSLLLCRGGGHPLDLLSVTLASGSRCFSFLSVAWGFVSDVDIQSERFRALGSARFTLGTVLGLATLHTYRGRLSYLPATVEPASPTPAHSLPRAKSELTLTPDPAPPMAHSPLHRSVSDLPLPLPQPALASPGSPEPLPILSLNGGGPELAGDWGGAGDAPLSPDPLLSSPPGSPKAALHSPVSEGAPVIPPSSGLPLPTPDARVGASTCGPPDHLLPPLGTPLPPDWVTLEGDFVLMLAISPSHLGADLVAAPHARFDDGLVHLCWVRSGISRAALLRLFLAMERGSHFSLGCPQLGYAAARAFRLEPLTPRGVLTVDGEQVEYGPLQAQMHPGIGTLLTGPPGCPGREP

U937 cells = assay: S1P levels in U937 cells by LC-MS/MS; format: cell-based; settings: 0.1 to 1 μM, 2 hours, duplicate
SphK2 [2] = assay: FTY720-P formation in U937 cells treated with FTY720; format: cell-based; settings: 1 μM FTY720, compound 0.1 μM to 1 μM, 2 hours, duplicate
human SphK1 = human SphK1 (Homo sapiens, UniProt Q9NYA1); assay: Recombinant hSphK1 activity, single-concentration screen; settings: compound 1 μM
Sequence of human SphK1 (Q9NYA1 whole entry): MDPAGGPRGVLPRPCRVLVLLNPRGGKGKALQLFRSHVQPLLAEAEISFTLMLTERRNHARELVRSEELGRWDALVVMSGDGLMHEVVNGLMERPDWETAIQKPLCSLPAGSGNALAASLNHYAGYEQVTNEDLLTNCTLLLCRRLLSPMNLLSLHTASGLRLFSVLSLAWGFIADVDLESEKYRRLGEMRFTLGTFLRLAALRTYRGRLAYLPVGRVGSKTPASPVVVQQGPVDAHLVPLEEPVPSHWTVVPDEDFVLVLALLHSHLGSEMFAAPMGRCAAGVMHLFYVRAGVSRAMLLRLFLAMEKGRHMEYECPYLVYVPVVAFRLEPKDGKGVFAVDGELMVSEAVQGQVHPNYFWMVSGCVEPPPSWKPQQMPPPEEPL

Row | inhibition at 0.3 µM (human SphK2) | Structure (SMILES) | further results
1 | – | O=C(NCc1ccncc1)C12CC3CC(C1)CC(c1ccc(Cl)cc1)(C3)C2 [ABC294640] | Ki (SphK2 [1]): 10 µM
2 | 36% | CCCCCCCCCCn1ccc2c(-c3noc([C@@H]4CCCN4C(=N)N)n3)cccc21 [Compound 6n, (S)-Amino(2-(3-(1-decyl-1H-indol-4-yl)-1,2,4-oxadiazol-5-yl)pyrrolidin-1-yl)methaniminium chloride] | –
3 | – | CCCCCCCCCn1ccc2cc(-c3noc([C@@H]4CCCN4C(=N)N)n3)ccc21.Cl [Compound 6r, (S)-Amino(2-(3-(1-nonyl-1H-indol-5-yl)-1,2,4-oxadiazol-5-yl)pyrrolidin-1-yl)methaniminium chloride] | S1P levels in cells (U937 cells): dose-dependent decrease; FTY720-P levels in cells (SphK2 [2]): concomitant decrease in FTY720-P in a dose dependent manner
4 | 70% | CCCCCCCCCCn1ccc2cc(-c3noc([C@@H]4CCCN4C(=N)N)n3)ccc21 [Compound 6s, (S)-Amino(2-(3-(1-decyl-1H-indol-5-yl)-1,2,4-oxadiazol-5-yl)pyrrolidin-1-yl)methaniminium chloride] | –
5 | 32% | CCCCCCCCCCn1ccc2ccc(-c3noc([C@@H]4CCCN4C(=N)N)n3)cc21 [Compound 6w, (S)-Amino(2-(3-(1-decyl-1H-indol-6-yl)-1,2,4-oxadiazol-5-yl)pyrrolidin-1-yl)methaniminium chloride] | –
6 | – | CCCCCCCCCn1cc(-c2noc(C[C@@H]3CCCN3C(=N)N)n2)c2ccccc21.Cl [Compound 11, (S)-Amino(2-((3-(1-nonyl-1H-indol-3-yl)-1,2,4-oxadiazol-5-yl)methyl)pyrrolidin-1-yl)methaniminium chloride] | effect on hSphK1 activity (in words) (human SphK1): inactive; effect on hSphK2 activity (in words) (human SphK2; compound 0.3 μM): inactive

Row | Structure (SMILES) | inhibition at 0.3 µM (human SphK2) | further results
7 | CCCCCCCCCCn1cc(-c2noc([C@@H]3CCCN3C(=N)N)n2)c2ccccc21 [Compound 6h, (S)-Amino(2-(3-(1-decyl-1H-indol-3-yl)-1,2,4-oxadiazol-5-yl)pyrrolidin-1-yl)methaniminium chloride] | > 50% | –
8 | CCCCCCCCCCCCn1cc(-c2noc([C@@H]3CCCN3C(=N)N)n2)c2ccccc21 [Compound 6j, (S)-Amino(2-(3-(1-dodecyl-1H-indol-3-yl)-1,2,4-oxadiazol-5-yl)pyrrolidin-1-yl)methaniminium chloride] | > 50% | –
